Assay results reported in PubChem BioAssay (NCI).
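All cell lines were grown in 96-well plates and treated with compound for 48 hours. GI50 = concentration required for 50% inhibition of growth. The concentration for full growth arrest is given as TGI.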

Experiments:
Test in all cases: DTP human tumour cell line panel, 48 h
[1] = tested on: NCI-H522 lung
[2] = tested on: MALME-3M melanoma
[3] = tested on: A549 NSCLC
[4] = tested on: NCI-H226 lung
[5] = tested on: RXF 393 renal
[6] = tested on: NCI-H23 lung
[7] = tested on: SN12C renal
[8] = tested on: UO-31 renal
[9] = tested on: HT29 colon
[10] = tested on: ACHN renal
[11] = tested on: HL-60(TB) leukemia
[12] = tested on: T-47D breast
[13] = tested on: RPMI-8226 leukemia
[14] = tested on: COLO 205 colon
[15] = tested on: OVCAR-3 ovarian
[16] = tested on: CCRF-CEM leukemia
[17] = tested on: U251 CNS
[18] = tested on: SNB-19 CNS
[19] = tested on: HS 578T breast
[20] = tested on: SF-268 CNS
[21] = tested on: MOLT-4 leukemia
[22] = tested on: TK-10 renal
[23] = tested on: OVCAR-5 ovarian
[24] = tested on: LOX IMVI melanoma
[25] = tested on: MCF7 breast
[26] = tested on: PC-3 prostate
[27] = tested on: SK-MEL-5 melanoma
[28] = tested on: BT-549 breast
[29] = tested on: HCT-116 colon
[30] = tested on: HCT-15 colon
[31] = tested on: EKVX NSCLC
[32] = tested on: MDA-MB-435
[33] = tested on: SK-OV-3 ovarian
[34] = tested on: MDA-MB-231 breast
[35] = tested on: SK-MEL-2 melanoma
[36] = tested on: KM12 colon
[37] = tested on: HOP-62 NSCLC
[38] = tested on: OVCAR-4 ovarian
[39] = tested on: SF-539 CNS
[40] = tested on: SK-MEL-28 melanoma
[41] = tested on: SNB-75 CNS
[42] = tested on: NCI-H460 lung
[43] = tested on: SR leukemia
[44] = tested on: K-562 leukemia
[45] = tested on: SF-295 CNS
[46] = tested on: DU-145 prostate
[47] = tested on: CAKI-1 renal
[48] = tested on: UACC-257 melanoma
[49] = tested on: IGROV1 ovarian
[50] = tested on: HCC-2998 colon
[51] = tested on: 786-0 renal
[52] = tested on: OVCAR-8 ovarian
[53] = tested on: A498 renal
[54] = tested on: M14 melanoma
[55] = tested on: SW-620 colon
[56] = tested on: HOP-92 NSCLC
[57] = tested on: UACC-62 melanoma
[58] = tested on: NCI/ADR-RES ovarian

## COc1ccc(N=Nc2ccc(O)c(=O)cc2)cc1
[1]
  GI50: 2.88 µM
  TGI: 13.4 µM
[2]
  GI50: 2.86 µM
  TGI: 14.2 µM
[3]
  GI50: 3.02 µM
  TGI: > 100 µM
[4]
  GI50: 3.73 µM
  TGI: > 100 µM
[5]
  GI50: 3.71 µM
  TGI: > 100 µM
[6]
  GI50: 3.02 µM
  TGI: > 100 µM
[7]
  GI50: 2.82 µM
  TGI: > 100 µM
[8]
  GI50: 2.91 µM
  TGI: > 100 µM
[9]
  GI50: 4.83 µM
  TGI: 49.7 µM
[10]
  GI50: 3.37 µM
  TGI: > 100 µM
[11]
  GI50: 3.55 µM
  TGI: > 100 µM
[12]
  GI50: 2.64 µM
  TGI: > 100 µM
[13]
  GI50: 2.68 µM
  TGI: 43.7 µM
[14]
  GI50: 7.07 µM
  TGI: > 100 µM
[15]
  GI50: 3.64 µM
  TGI: > 100 µM
[16]
  GI50: 2.18 µM
  TGI: 9.94 µM
[17]
  GI50: 3.2 µM
  TGI: > 100 µM
[18]
  GI50: 2.92 µM
  TGI: 51.6 µM
[19]
  GI50: 4.41 µM
  TGI: > 100 µM
[20]
  GI50: 3.62 µM
  TGI: > 100 µM
[21]
  GI50: 3.69 µM
  TGI: > 100 µM
[22]
  GI50: 5.8 µM
  TGI: > 100 µM
[23]
  GI50: 5.89 µM
  TGI: > 100 µM
[24]
  GI50: 2.44 µM
  TGI: 27 µM
[25]
  GI50: 3.4 µM
  TGI: > 100 µM
[26]
  GI50: 4.82 µM
  TGI: > 100 µM
[27]
  GI50: 3.34 µM
  TGI: 16.2 µM
[28]
  GI50: 2.03 µM
  TGI: 11.6 µM
[29]
  GI50: 2.58 µM
  TGI: 15.4 µM
[30]
  GI50: 2.55 µM
  TGI: > 100 µM
[31]
  GI50: 4.3 µM
  TGI: > 100 µM
[32]
  GI50: 4.02 µM
  TGI: > 100 µM
[33]
  GI50: 4.58 µM
  TGI: > 100 µM
[34]
  GI50: 4.62 µM
  TGI: > 100 µM
[35]
  GI50: 5.01 µM
  TGI: 41.1 µM
[36]
  GI50: 3.66 µM
  TGI: > 100 µM
[37]
  GI50: 4.19 µM
  TGI: 41.8 µM
[38]
  GI50: 5.05 µM
  TGI: > 100 µM
[39]
  GI50: 3.16 µM
  TGI: 11.5 µM
[40]
  GI50: 3.06 µM
  TGI: 31.6 µM
[41]
  GI50: 3.43 µM
  TGI: > 100 µM
[42]
  GI50: 1.79 µM
  TGI: 18.9 µM
[43]
  GI50: 3.79 µM
  TGI: > 100 µM
[44]
  GI50: 3.69 µM
  TGI: > 100 µM
[45]
  GI50: 3.79 µM
  TGI: > 100 µM
[46]
  GI50: 4.07 µM
  TGI: > 100 µM
[47]
  GI50: 3.77 µM
  TGI: > 100 µM
[48]
  GI50: 3.12 µM
  TGI: > 100 µM
[49]
  GI50: 3.86 µM
  TGI: > 100 µM
[50]
  GI50: 4.04 µM
  TGI: > 100 µM
[51]
  GI50: 3.07 µM
  TGI: > 100 µM
[52]
  GI50: 2.88 µM
  TGI: > 100 µM
[53]
  GI50: 24.1 µM
  TGI: > 100 µM
[54]
  GI50: 2.22 µM
  TGI: 7.42 µM
[55]
  GI50: 4.08 µM
  TGI: > 100 µM
[56]
  GI50: 2.66 µM
  TGI: > 100 µM
[57]
  GI50: 2.11 µM
  TGI: 5.12 µM

## COc1cccc(C(=O)NNc2nc(Cl)nc(N3CCN(C(c4ccccc4)c4ccccc4)CC3)n2)c1
[2]
  GI50: 1.7 µM
  TGI: 3.78 µM
[3]
  GI50: 22.1 µM
  TGI: 83.6 µM
[4]
  GI50: 17 µM
  TGI: 38 µM
[5]
  GI50: 2.7 µM
  TGI: 8.28 µM
[6]
  GI50: 2.7 µM
  TGI: 7.5 µM
[7]
  GI50: 1.8 µM
  TGI: 3.47 µM
[8]
  GI50: 3.14 µM
  TGI: 22 µM
[9]
  GI50: 2.12 µM
  TGI: 4.8 µM
[10]
  GI50: 1.76 µM
  TGI: 3.16 µM
[11]
  GI50: 6.29 µM
  TGI: 43.9 µM
[12]
  GI50: > 100 µM
  TGI: > 100 µM
[13]
  GI50: > 100 µM
  TGI: > 100 µM
[14]
  GI50: 3.67 µM
  TGI: 14.3 µM
[15]
  GI50: 1.72 µM
  TGI: 3.28 µM
[16]
  GI50: 2.23 µM
  TGI: 30.4 µM
[17]
  GI50: 1.78 µM
  TGI: 3.51 µM
[18]
  GI50: 1.88 µM
  TGI: 3.98 µM
[19]
  GI50: 1.95 µM
  TGI: 4.9 µM
[20]
  GI50: 2.07 µM
  TGI: 4.73 µM
[21]
  GI50: 2.36 µM
  TGI: 7.54 µM
[22]
  GI50: 51 µM
  TGI: > 100 µM
[23]
  GI50: 16.3 µM
  TGI: 40 µM
[24]
  GI50: 1.7 µM
  TGI: 3.14 µM
[25]
  GI50: 82.2 µM
  TGI: > 100 µM
[27]
  GI50: 15.9 µM
  TGI: 29.7 µM
[28]
  GI50: 1.63 µM
  TGI: 3.31 µM
[29]
  GI50: 1.77 µM
  TGI: 3.73 µM
[30]
  GI50: 1.9 µM
  TGI: 3.73 µM
[31]
  GI50: 5.76 µM
  TGI: 20 µM
[32]
  GI50: 3.96 µM
  TGI: 14.2 µM
[33]
  GI50: 13.2 µM
  TGI: 26 µM
[34]
  GI50: 1.88 µM
  TGI: 3.85 µM
[35]
  GI50: 2.14 µM
  TGI: 5.31 µM
[36]
  GI50: > 100 µM
  TGI: > 100 µM
[58]
  GI50: 2.18 µM
  TGI: 5.05 µM
[37]
  GI50: 8.71 µM
  TGI: 23.5 µM
[38]
  GI50: 1.73 µM
  TGI: 3.44 µM
[39]
  GI50: 2.08 µM
  TGI: 4.3 µM
[40]
  GI50: 2.21 µM
  TGI: 5.38 µM
[41]
  GI50: 1.51 µM
  TGI: 3.56 µM
[42]
  GI50: 3.26 µM
  TGI: 12 µM
[43]
  GI50: 0.852 µM
  TGI: 4.26 µM
[45]
  GI50: 16.8 µM
  TGI: 30.4 µM
[46]
  GI50: 4.3 µM
  TGI: 15.3 µM
[47]
  GI50: 1.87 µM
  TGI: 4.31 µM
[48]
  GI50: 3.06 µM
  TGI: 11.7 µM
[49]
  GI50: 1.63 µM
  TGI: 3.07 µM
[50]
  GI50: 1.77 µM
  TGI: 3.43 µM
[51]
  GI50: 3.4 µM
  TGI: 13.1 µM
[52]
  GI50: 2.02 µM
  TGI: 4.53 µM
[53]
  GI50: 14.1 µM
  TGI: 40.2 µM
[54]
  GI50: 1.7 µM
  TGI: 3.53 µM
[55]
  GI50: 1.9 µM
  TGI: 3.98 µM
[56]
  GI50: 1.57 µM
  TGI: 3.82 µM
[57]
  GI50: 2.3 µM
  TGI: 5.85 µM
